Measured values published in patent US20240358678A1, “METHODS AND COMPOSITIONS FOR ENHANCING CHEMOTHERAPEUTIC DRUG UPTAKE INTO BRAIN TUMORS” (Brown University, priority 2023, published 2024).

How the values were obtained:
HCMEC/D3 cells = assay: Trans-endothelial electrical resistance (TEER) of HCMEC/D3 monolayers; type: cell-based, human
Method: Trans-endothelial electrical resistance: HCMEC/D3 or HBMEC cells were plated in 8W10E+ PET 8-well arrays (Applied Biophysics) at a density of 100,000 cells/well in 500 μl. These arrays were placed in a pre-stabilized ECIS Z-Theta instrument (Applied Biophysics). Using the ECIS Z-Theta software (Applied Biophysics), measurements were set to 4000 and 64000 Hz every 30 minutes. […] Cells would then be treated with BIA and left to grow up to 5 days, with frequent drug-containing media re-addition for maintenance of the culture. Resistance (W) and capacitance (nF) were recorded and plotted.

G30 tumor-bearing mice = assay: Sodium fluorescein (NaF) BTB permeability study; type: in vivo
Method: In vivo studies: For intra-cranial tumor implantation, GBM neuro-spheres were grown to 70% confluency before dissociated into single cell on the day of surgery. 50,000 cells were resuspended in 3 μl of sterile PBS and injected intracranially into the striatum (2 mm right hemisphere, 1 mm frontal, 3 mm depth from bregma) of mice under anesthesia and stereo-tactically fixed. Tumors were left to grow for approximately 2-3 weeks, depending the cell line. Animals were randomized to treatment groups. BIA injections consisted of 20 mg/kg (i.p.), except if indicated otherwise. PPRX-1701 was administered at 20 mg/kg (i.v.) via lateral tail-vein. Cisplatin injections were performed at 5 mg/kg (maximum tolerated dose, i.p.). […]
Sodium fluorescein (NaF) BTB permeability studies: NaF was administered to G30 tumor-bearing mice intravenously (i.v.) via lateral tail vein at 20 mg/kg. Then, 30 minutes after administration when peak fluorescence is reached in the brain, mice were euthanized for immediate brain tissue harvest. […] Quantification of pixel intensities from acquired images was performed in ImageJ. Tissue samples were then homogenized in 1 mL of 60% trichloroacetic acid in PBS and measured at 488 nm in a Molecular Devices SpectraMax M2 plate reader.

SMILES: CC(=O)ON=C1C(=C2C(=O)Nc3cc(Br)ccc32)Nc2ccccc21 [BIA, 6-bromoindirubin acetoxime]
- barrier establishment (TEER), BIA added 24 hours after plating (HCMEC/D3 cells): prevented barrier establishment
- barrier formation (TEER), BIA added to confluent monolayers (HCMEC/D3 cells; BIA added at monolayer confluence (~110 hrs)): marked decreased of barrier formation
- NaF fluorescent signal in healthy brain (G30 tumor-bearing mice; after BIA administration): not in healthy brain
- NaF fluorescent signal in the tumor (G30 tumor-bearing mice; after BIA administration vs untreated controls): significant accumulation in the tumor
